One test has as its target T1, A. baumannii PBP1a (Acinetobacter baumannii, UniProt A0ABX6CK30).
T1 sequence (A0ABX6CK30 1-851): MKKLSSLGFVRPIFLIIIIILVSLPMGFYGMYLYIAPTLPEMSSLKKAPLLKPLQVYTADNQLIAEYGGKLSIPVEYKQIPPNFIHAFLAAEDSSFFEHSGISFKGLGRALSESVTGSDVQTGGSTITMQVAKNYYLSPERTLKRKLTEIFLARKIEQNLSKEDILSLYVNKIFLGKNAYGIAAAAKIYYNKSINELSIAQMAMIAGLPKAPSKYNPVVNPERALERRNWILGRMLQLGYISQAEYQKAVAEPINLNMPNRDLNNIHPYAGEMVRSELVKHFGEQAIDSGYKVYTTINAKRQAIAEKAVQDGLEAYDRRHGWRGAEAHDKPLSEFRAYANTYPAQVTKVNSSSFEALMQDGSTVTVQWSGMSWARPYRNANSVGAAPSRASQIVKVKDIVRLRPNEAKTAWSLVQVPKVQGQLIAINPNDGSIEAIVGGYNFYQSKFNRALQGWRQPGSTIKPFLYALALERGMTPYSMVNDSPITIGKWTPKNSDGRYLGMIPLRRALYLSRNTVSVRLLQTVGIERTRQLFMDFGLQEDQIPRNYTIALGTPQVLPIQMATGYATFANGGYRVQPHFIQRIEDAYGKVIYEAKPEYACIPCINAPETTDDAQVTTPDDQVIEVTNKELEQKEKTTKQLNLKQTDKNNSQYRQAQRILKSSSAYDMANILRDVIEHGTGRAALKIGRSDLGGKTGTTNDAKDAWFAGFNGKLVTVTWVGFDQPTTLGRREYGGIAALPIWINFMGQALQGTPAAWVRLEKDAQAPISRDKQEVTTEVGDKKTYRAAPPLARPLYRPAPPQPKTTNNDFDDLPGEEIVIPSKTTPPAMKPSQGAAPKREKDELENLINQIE
Briefly: Bocillin-FL competition binding via gel filtration, A. baumannii PBP1a. Conditions: competition binding assay using Bocillin-FL via gel filtration; read-out: A. baumannii PBP1a Potency. In outline:
(§1)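 Enzyme was pre-incubated with rising inhibitor concentrations, then Bocillin-FL was added and incubated 15 minutes more. Bound probe was separated by gel filtration and fluorescence read. EC50 came from fitting fraction of PBP labelled versus inhibitor concentration to a Hill equation with ymin, ymax and n.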
Background: In gel filtration, larger molecules generally elute earlier.

Another test addresses A. baumannii PBP2 (Acinetobacter baumannii, UniProt D0C8Z9). Description: Bocillin-FL competition binding via gel filtration, A. baumannii PBP2. In outline: as §1
For the next test, the system named is B. pseudomallei Bp82. Description: microbe, parasite or virus in culture. In kind it is cell-based. Conditions: Burkholderia pseudomallei, BP82, read-out: Minimum inhibitory concentration, B. pseudomallei Bp82.
A further test has as its system P. aeruginosa ATCC 27853. Briefly: microbe, parasite or virus in culture. It counts as cell-based. The conditions noted are these: Pseudomonas aeruginosa, ATCC27853, read-out: Minimum inhibitory concentration, P. aeruginosa ATCC 27853.
The next test deals with A. baumannii ATCC 17978. Briefly: microbe, parasite or virus in culture. It counts as cell-based. The conditions noted are these: Acinetobacter baumannii, ATCC17978, read-out: MIC, A. baumannii ATCC 17978.
The subject of a further test is A. baumannii ATCC 19606. Description: microbe, parasite or virus in culture. It counts as cell-based. The conditions noted are these: Acinetobacter baumannii, ATCC19606, read-out: MIC, A. baumannii ATCC 19606.
The subject of a further test is P. aeruginosa ATCC 35151. Briefly: microbe, parasite or virus in culture. In kind it is cell-based. Conditions: Pseudomonas aeruginosa, ATCC35151, read-out: Minimum inhibitory concentration, P. aeruginosa ATCC 35151.
In test [1] the test system is P. aeruginosa (ΔmexAB-oprM). Description: Broth microdilution MIC in iron-depleted CAMHB (IDM). It counts as cell-based. Conditions: Pseudomonas aeruginosa; iron-depleted CAMHB (IDM); […]; read-out: Minimum inhibitory concentration, P. aeruginosa ΔmexAB-oprM. Background: Dilution methods test growth across graded concentrations, often in twofold steps.
The next test concerns P. aeruginosa CDC-0054. Description: microbe, parasite or virus in culture. It counts as cell-based. Conditions: Pseudomonas aeruginosa, CDC0054, read-out: Minimum inhibitory concentration, P. aeruginosa CDC-0054.
A further test relates to P. aeruginosa CDC-0090. Briefly: microbe, parasite or virus in culture. In kind it is cell-based. The conditions noted are these: Pseudomonas aeruginosa, CDC0090, read-out: Minimum inhibitory concentration, P. aeruginosa CDC-0090.
The test system of a further test is P. aeruginosa CDC-0095. Briefly: microbe, parasite or virus in culture. In kind it is cell-based. The conditions noted are these: Pseudomonas aeruginosa, CDC0095, read-out: Minimum inhibitory concentration, P. aeruginosa CDC-0095.
In the next test the test system is A. baumannii 1258916. Briefly: microbe, parasite or virus in culture. In kind it is cell-based, Acinetobacter baumannii. Conditions: Acinetobacter baumannii, 1258916, read-out: MIC, A. baumannii 1258916.
For a further test, the system named is A. baumannii CDC-0033. Briefly: microbe, parasite or virus in culture. It counts as cell-based. Conditions: Acinetobacter baumannii, CDC0033, read-out: MIC, A. baumannii CDC-0033.
The next test relates to A. baumannii CDC-0036. Briefly: microbe, parasite or virus in culture. In kind it is cell-based. The conditions noted are these: Acinetobacter baumannii, CDC0036, read-out: MIC, A. baumannii CDC-0036.
The test system of a further test is A. baumannii CDC-0045. Description: microbe, parasite or virus in culture. In kind it is cell-based. Conditions: Acinetobacter baumannii, CDC0045, read-out: MIC, A. baumannii CDC-0045.
A further test relates to A. baumannii CDC-0083. Description: microbe, parasite or virus in culture. In kind it is cell-based. The conditions noted are these: Acinetobacter baumannii, CDC0083, read-out: MIC, A. baumannii CDC-0083.
In test [2] the test system is B. thailandensis ATCC 700388. Description: microbe, parasite or virus in culture. It counts as cell-based. Conditions: Burkholderia thailandensis, ATCC700388, read-out: Minimum inhibitory concentration (MIC), B. thailandensis ATCC 700388.
For test [3], the system named is B. humptydooensis ATCC BAA-2767. Briefly: microbe, parasite or virus in culture. It counts as cell-based. Conditions: Burkholderia humptydooensis, ATCCBAA2767, read-out: Minimum inhibitory concentration (MIC), B. humptydooensis ATCC BAA-2767.

Structures are written as SMILES. Converted amounts (≈) assume the structure as drawn.

Chain of A. baumannii PBP2 (D0C8Z9 whole entry): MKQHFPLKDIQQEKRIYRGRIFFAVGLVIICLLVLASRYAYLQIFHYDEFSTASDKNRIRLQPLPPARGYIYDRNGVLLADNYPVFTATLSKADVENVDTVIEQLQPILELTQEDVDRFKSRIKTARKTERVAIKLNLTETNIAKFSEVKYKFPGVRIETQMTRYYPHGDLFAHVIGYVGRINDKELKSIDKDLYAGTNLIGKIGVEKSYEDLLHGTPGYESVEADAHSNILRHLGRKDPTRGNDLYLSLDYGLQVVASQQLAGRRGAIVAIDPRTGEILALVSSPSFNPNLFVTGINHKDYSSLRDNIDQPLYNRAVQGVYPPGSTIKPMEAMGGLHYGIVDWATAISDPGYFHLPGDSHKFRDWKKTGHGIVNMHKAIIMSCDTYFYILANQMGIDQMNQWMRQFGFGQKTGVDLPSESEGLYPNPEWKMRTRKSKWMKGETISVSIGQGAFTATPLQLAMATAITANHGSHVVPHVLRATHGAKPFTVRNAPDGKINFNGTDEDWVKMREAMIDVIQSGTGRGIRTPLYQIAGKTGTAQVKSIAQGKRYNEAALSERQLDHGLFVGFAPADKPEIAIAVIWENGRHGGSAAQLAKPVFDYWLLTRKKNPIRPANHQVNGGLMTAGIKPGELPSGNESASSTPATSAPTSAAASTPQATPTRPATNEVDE

Take `O=C(O)c1c(F)ccc2c1OB(O)[C@@H](NC(=O)C(NC(=O)N1CCN(Cc3ccc(O)c(O)c3Cl)C(=O)C1=O)c1ccc(P(=O)(O)O)cc1)C2` (stereo partly drawn) [Example 8, (3R)-3-(2-(4-(2-chloro-3,4-dihydroxybenzyl)-2,3-dioxopiperazine-1-carboxamido)-2-(4-phosphonophenyl)acetamido)-7-fluoro-2-hydroxy-3,4-dihydro-2H-benzo[e][1,2]oxaborinine-8-carboxylic acid]: the EC50 on A. baumannii PBP1a and on A. baumannii PBP2 was 10 to 50 µM throughout. Besides, the MIC (with B. pseudomallei Bp82; in the test on P. aeruginosa ATCC 27853; with A. baumannii ATCC 17978; with A. baumannii ATCC 19606; in the test with P. aeruginosa ATCC 35151; in [1]) was less than 1 µg/mL in each case. Besides, the MIC in the test on P. aeruginosa CDC-0054 is less than 1 µg/mL; with P. aeruginosa CDC-0090, 2 to 4 µg/mL (≈ 2.72 to 5.44 µM); in the test with P. aeruginosa CDC-0095 it was less than 1 µg/mL; with A. baumannii 1258916 it was less than 1 µg/mL; in the test with A. baumannii CDC-0033, less than 1 µg/mL; with A. baumannii CDC-0036, 2 to 4 µg/mL (≈ 2.72 to 5.44 µM). Moreover, the MIC (in the test with A. baumannii CDC-0045; in the test on A. baumannii CDC-0083; in test [2]; in [3]) was less than 1 µg/mL in each case.

As for `O=C(NCCN1CCN(C(=O)NC(C(=O)N[C@H]2Cc3ccc(F)c(C(=O)O)c3OB2O)c2ccc(P(=O)(O)O)cc2)C(=O)C1=O)c1ccc(O)c(O)c1Cl` (stereo partly drawn) [Example 120, (3R)-3-(2-(4-(2-(2-chloro-3,4-dihydroxybenzamido)ethyl)-2,3-dioxopiperazine-1-carboxamido)-2-(4-phosphonophenyl)acetamido)-7-fluoro-2-hydroxy-3,4-dihydro-2H-benzo[e][1,2]oxaborinine-8-carboxylic acid], the EC50 at A. baumannii PBP1a and at A. baumannii PBP2 was 10 to 50 µM in each case. Moreover, the MIC (with P. aeruginosa ATCC 27853; with A. baumannii ATCC 17978; in the test with A. baumannii ATCC 19606; in the test with P. aeruginosa ATCC 35151; in test [1]; with P. aeruginosa CDC-0054) was less than 1 µg/mL throughout. In addition, the MIC in the test on P. aeruginosa CDC-0090 was less than 1 µg/mL; in the test with P. aeruginosa CDC-0095, less than 1 µg/mL; in the test on A. baumannii 1258916 it was less than 1 µg/mL; in the test with A. baumannii CDC-0033 it was 2 to 4 µg/mL (≈ 2.53 to 5.05 µM); in the test with A. baumannii CDC-0036, 8 to 16 µg/mL (≈ 10.1 to 20.2 µM); with A. baumannii CDC-0045, less than 1 µg/mL. Further, the MIC (with A. baumannii CDC-0083; in test [2]; in test [3]) was less than 1 µg/mL each time.

For the origin of these results see US20240270762A1, “PENICILLIN-BINDING PROTEIN INHIBITORS” (priority 2021, published 2024).
